Test results from PMC7156458, “Synthetic biology based construction of biological activity-related library of fungal decalin-containing diterpenoid pyrones” (Nature Communications, 2020).
Like-named read-outs stand apart in the source and are kept apart here.

Assays:
[1] = test system: human immunodeficiency virus-1 (HIV-1); assay: anti-HIV MAGI assay; format: cell-based; details: Human immunodeficiency virus 1, MAGI, anti-HIV
Description: We examined the inhibitory activities of DDPs against various species of bacteria (both gram-negative and gram-positive bacteria), fungi and viruses. […] In contrast, preliminary screening of the DDPs for anti-viral agents with hepatitis B virus (HBV), measles virus (MV), Epstein-Barr virus (EBV), herpes simplex virus (HSV) and human immunodeficiency virus-1 (HIV-1) indicated their selective inhibition of HIV.

DL1 cells = assay: cytotoxicity in Drosophila DL1 cells; format: cell-based; details: DL1 cells; for IC50: Drosophila melanogaster, cytotoxicity
Experimental: (§1) We screened the DDPs on the Drosophila assay system for cytotoxicity, inhibitory activity of innate immune signalling and insecticidal activity. The cytotoxicity of the DDPs was evaluated using two cell lines, embryonic macrophage-derived DL1 cells[58]–[60] and larval blood cell-derived l(2)mbn cells, and their IC50 values are listed in Supplementary Table 23.

[2] = cytotoxicity in Drosophila DL1 cells; format: cell-based; details: Drosophila, DL1 cells (embryonic macrophage-derived), DL1 cells
Experimental: as §1

l(2)mbn cells = assay: cytotoxicity in Drosophila l(2)mbn cells; format: cell-based; details: for Luminescence Raw1: replicate 1; for Luminescence Raw2: replicate 2; for IC50: Drosophila melanogaster, cytotoxicity
Experimental: as §1

[3] = cytotoxicity in Drosophila l(2)mbn cells; format: cell-based; details: Drosophila, l(2)mbn cells (larval blood cell-derived)
Experimental: as §1

MCF-7 cells = assay: cell cytotoxic effects against MCF-7 cells (72 h), A490; format: cell-based, human
MAGI cells = assay: cytotoxicity in the anti-HIV assay (CC50); format: cell-based; details: single determinations
[4] = average of two replicates, read-out: IC50 Average
[5] = replicate 1, read-out: IC50 (1)
[6] = replicate 2, read-out: IC50 (2)
[7] = replicate 1, relative to DMSO 1%, read-out: % viability, viability 1
[8] = replicate 2, relative to DMSO 1%, read-out: % viability, viability 2

Question: With `C=C1CC[C@H]2[C@]3(C)C[C@@H](C=C(C)C)O[C@H]3CC[C@]2(C)[C@@H]1Cc1c(OC)oc(CO)c(C)c1=O` [Compound 17] as the molecule, how does the EC50 ([1]; MAGI assay, read-out: EC50) read?
Answer: < 200 nM

Question: And the EC50 ([1]; average of numeric determinations, read-out: Avg. EC50)?
Answer: 1360 nM

Question: What about the “Luminescence Raw1” value (DL1 cells; 0.04 µM, replicate 1) of the same molecule?
Answer: 2678864

Question: What about the “Luminescence Raw2” value (DL1 cells; 0.04 µM, replicate 2) of the same molecule?
Answer: 2844064

Question: What about the “Luminescence Raw1” value (DL1 cells; 0.2 µM, replicate 1) of the same molecule?
Answer: 2387791

Question: And the “Luminescence Raw2” value (DL1 cells; 0.2 µM, replicate 2)?
Answer: 2484453

Question: What about the “Luminescence Raw1” value (DL1 cells; 1 µM, replicate 1) of the same molecule?
Answer: 1292136

Question: And the “Luminescence Raw2” value (DL1 cells; 1 µM, replicate 2)?
Answer: 490161

Question: What about the “Luminescence Raw1” value (DL1 cells; 4 µM, replicate 1) of the same molecule?
Answer: 264802

Question: And the “Luminescence Raw2” value (DL1 cells; 4 µM, replicate 2)?
Answer: 275258

Question: What about the “Luminescence Raw1” value (DL1 cells; 10 µM, replicate 1) of the same molecule?
Answer: 251461

Question: And the “Luminescence Raw2” value (DL1 cells; 10 µM, replicate 2)?
Answer: 258312

Question: And the “Luminescence Raw1” value (DL1 cells; 20 µM, replicate 1)?
Answer: 208914

Question: What about the “Luminescence Raw2” value (DL1 cells; 20 µM, replicate 2) of the same molecule?
Answer: 269129

Question: What about the IC50 (DL1 cells; [4]) of the same molecule?
Answer: 2780 nM

Question: What about the IC50 (DL1 cells; average±SEM, read-out: IC50) of the same molecule?
Answer: 2780 ± 680 nM

Question: What about the IC50 (DL1 cells; [5]) of the same molecule?
Answer: 3460 nM

Question: What about the IC50 (DL1 cells; [6]) of the same molecule?
Answer: 2100 nM

Question: What about the viability at 0.04 µM [2, 7] of the same molecule?
Answer: 195%

Question: What about the viability at 0.04 µM [2, 8] of the same molecule?
Answer: 207%

Question: And the viability at 0.2 µM [2, 7]?
Answer: 174%

Question: What about the viability at 0.2 µM [2, 8] of the same molecule?
Answer: 181%

Question: What about the viability at 1 µM [2, 7] of the same molecule?
Answer: 94.2%

Question: What about the viability at 1 µM [2, 8] of the same molecule?
Answer: 35.7%

Question: What about the viability at 4 µM [2, 7] of the same molecule?
Answer: 19.3%

Question: What about the viability at 4 µM [2, 8] of the same molecule?
Answer: 20.1%

Question: And the viability at 10 µM [2, 7]?
Answer: 18.3%

Question: What about the viability at 10 µM [2, 8] of the same molecule?
Answer: 18.8%

Question: And the viability at 20 µM [2, 7]?
Answer: 15.2%

Question: And the viability at 20 µM [2, 8]?
Answer: 19.6%

Question: What about the “Luminescence Raw1” value (l(2)mbn cells; 0.04 µM) of the same molecule?
Answer: 2242516

Question: What about the “Luminescence Raw2” value (l(2)mbn cells; 0.04 µM) of the same molecule?
Answer: 5241058

Question: What about the “Luminescence Raw1” value (l(2)mbn cells; 0.2 µM) of the same molecule?
Answer: 3856705

Question: And the “Luminescence Raw2” value (l(2)mbn cells; 0.2 µM)?
Answer: 5991979

Question: And the “Luminescence Raw1” value (l(2)mbn cells; 1 µM)?
Answer: 4822512

Question: And the “Luminescence Raw2” value (l(2)mbn cells; 1 µM)?
Answer: 6091579

Question: What about the “Luminescence Raw1” value (l(2)mbn cells; 4 µM) of the same molecule?
Answer: 1969854

Question: What about the “Luminescence Raw2” value (l(2)mbn cells; 4 µM) of the same molecule?
Answer: 1392467

Question: What about the “Luminescence Raw1” value (l(2)mbn cells; 10 µM) of the same molecule?
Answer: 122097

Question: What about the “Luminescence Raw2” value (l(2)mbn cells; 10 µM) of the same molecule?
Answer: 121376

Question: What about the “Luminescence Raw1” value (l(2)mbn cells; 20 µM) of the same molecule?
Answer: 118130

Question: What about the “Luminescence Raw2” value (l(2)mbn cells; 20 µM) of the same molecule?
Answer: 243967

Question: And the IC50 (l(2)mbn cells; [4])?
Answer: 1780 nM

Question: What about the IC50 (l(2)mbn cells; average±SEM, read-out: IC50) of the same molecule?
Answer: 1780 ± 430 nM

Question: And the IC50 (l(2)mbn cells; [5])?
Answer: 1350 nM

Question: What about the IC50 (l(2)mbn cells; [6]) of the same molecule?
Answer: 2220 nM

Question: And the viability at 0.04 µM [3, 7]?
Answer: 35.7%

Question: What about the viability at 0.04 µM [3, 8] of the same molecule?
Answer: 83.5%

Question: And the viability at 0.2 µM [3, 7]?
Answer: 61.4%

Question: And the viability at 0.2 µM [3, 8]?
Answer: 95.4%

Question: And the viability at 1 µM [3, 7]?
Answer: 76.8%

Question: And the viability at 1 µM [3, 8]?
Answer: 97%

Question: What about the viability at 4 µM [3, 7] of the same molecule?
Answer: 31.4%

Question: What about the viability at 4 µM [3, 8] of the same molecule?
Answer: 22.2%

Question: And the viability at 10 µM [3, 7]?
Answer: 1.94%

Question: And the viability at 10 µM [3, 8]?
Answer: 1.93%

Question: What about the viability at 20 µM [3, 7] of the same molecule?
Answer: 1.88%

Question: And the viability at 20 µM [3, 8]?
Answer: 3.89%

Question: And the “cytotoxicity against the bulk of MCF-7 cells” value (MCF-7 cells)?
Answer: dose-dependent cytotoxicity

Question: What about the viability at 0.1 µM (MCF-7 cells; Homo sapiens, MCF7, 72 h, MCF-7, 72 h, 0.1 µM (DMSO 0.002%), read-out: A490 (control =1) ave) of the same molecule?
Answer: 84.7%

Question: What about the viability at 1 µM (MCF-7 cells; Homo sapiens, MCF7, 72 h, MCF-7, 72 h, 1 µM (DMSO 0.02%), read-out: A490 (control =1) ave) of the same molecule?
Answer: 48.1%

Question: What about the viability at 10 µM (MCF-7 cells; Homo sapiens, MCF7, 72 h, MCF-7, 72 h, 10 µM (DMSO 0.2%), read-out: A490 (control =1) ave) of the same molecule?
Answer: 29.4%

Question: And the A490 ave (MCF-7 cells; MCF-7, 72 h, 0.1 µM (DMSO 0.002%), control 1.064)?
Answer: 0.901

Question: What about the A490 ave (MCF-7 cells; MCF-7, 72 h, 1 µM (DMSO 0.02%), control 1.104) of the same molecule?
Answer: 0.531

Question: And the A490 ave (MCF-7 cells; MCF-7, 72 h, 10 µM (DMSO 0.2%), control 1.049)?
Answer: 0.309

Question: And the Cytotoxicity (MAGI cells)?
Answer: >10 µM
